What was measured:
lambsquarters [1] = experiment: Test Example 4: herbicidal effect by soil treatment (Table 19, symbol O); assay type: in vivo, lambsquarters (Chenopodium album); conditions: amount of applied herbicide 320 g/ha
Summary of the method: (§1)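 Pre-emergence style soil spray: seeds under ~1.5 cm sterilized diluvial soil received a uniform coat of emulsion diluted to the predetermined herbicide amount. Greenhouse 25–30° C; readout at week three on previously defined criteria.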

persian speedwell [2] = experiment: Test Example 5: herbicidal effect by foliage application, plastic box (Table 20, symbol R); assay type: in vivo, Persian speedwell (Veronica persica); conditions: foliage application, 320 g/ha
Summary of the method: (§2)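 Plants were sown into sterilized diluvial soil under about 1.5 cm cover and kept in a greenhouse at 25° C. to 30° C. Fourteen days on, foliage received an even spray of the diluted emulsion. Herbicidal or crop effect was judged three weeks afterwards.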

wild oat [3] = experiment: Test Example 5: herbicidal effect by foliage application, plastic box (Table 20, symbol I); assay type: in vivo, wild oat (Avena fatua); conditions: foliage application, 320 g/ha
Summary of the method: as §2

barnyard grass [4] = experiment: Test Example 5: herbicidal effect by foliage application, plastic box (Table 20, symbol H); assay type: in vivo, barnyard grass (Echinochloa crus-galli); conditions: foliage application, 320 g/ha
Summary of the method: as §2

lambsquarters [5] = experiment: Test Example 5: herbicidal effect by foliage application, plastic box (Table 20, symbol O); assay type: in vivo, lambsquarters (Chenopodium album); conditions: foliage application, 320 g/ha
Summary of the method: as §2

southern crabgrass [6] = experiment: Test Example 4: herbicidal effect by soil treatment (Table 19, symbol F); assay type: in vivo, southern crabgrass (Digitaria ciliaris); conditions: amount of applied herbicide 320 g/ha
Summary of the method: as §1

wild oat [7] = experiment: Test Example 4: herbicidal effect by soil treatment (Table 19, symbol I); assay type: in vivo, wild oat (Avena fatua); conditions: amount of applied herbicide 320 g/ha
Summary of the method: as §1

chickweed [8] = experiment: Test Example 4: herbicidal effect by soil treatment (Table 19, symbol P); assay type: in vivo, common chickweed (Stellaria media); conditions: amount of applied herbicide 320 g/ha
Summary of the method: as §1

green foxtail [9] = experiment: Test Example 5: herbicidal effect by foliage application, plastic box (Table 20, symbol G); assay type: in vivo, green foxtail (Setaria viridis); conditions: foliage application, 320 g/ha
Summary of the method: as §2

blackgrass [10] = experiment: Test Example 4: herbicidal effect by soil treatment (Table 19, symbol J); assay type: in vivo, blackgrass (Alopecurus myosuroides); conditions: amount of applied herbicide 320 g/ha
Summary of the method: as §1

windgrass [11] = experiment: Test Example 5: herbicidal effect by foliage application, plastic box (Table 20, symbol L); assay type: in vivo, windgrass (Apera spica-venti); conditions: foliage application, 320 g/ha
Summary of the method: as §2

redroot pigweed [12] = experiment: Test Example 5: herbicidal effect by foliage application, plastic box (Table 20, symbol N); assay type: in vivo, redroot pigweed (Amaranthus retroflexus); conditions: foliage application, 320 g/ha, evaluated three weeks after application
Summary of the method: as §2

velvetleaf [13] = experiment: Test Example 4: herbicidal effect by soil treatment (Table 19, symbol M); assay type: in vivo, velvetleaf (Abutilon theophrasti); conditions: amount of applied herbicide 320 g/ha
Summary of the method: as §1

windgrass [14] = experiment: Test Example 4: herbicidal effect by soil treatment (Table 19, symbol L); assay type: in vivo, windgrass (Apera spica-venti); conditions: amount of applied herbicide 320 g/ha
Summary of the method: as §1

green foxtail [15] = experiment: Test Example 4: herbicidal effect by soil treatment (Table 19, symbol G); assay type: in vivo, green foxtail (Setaria viridis); conditions: amount of applied herbicide 320 g/ha
Summary of the method: as §1

barnyard grass [16] = experiment: Test Example 4: herbicidal effect by soil treatment (Table 19, symbol H); assay type: in vivo, barnyard grass (Echinochloa crus-galli); conditions: amount of applied herbicide 320 g/ha
Summary of the method: as §1

southern crabgrass [17] = experiment: Test Example 5: herbicidal effect by foliage application, plastic box (Table 20, symbol F); assay type: in vivo, southern crabgrass (Digitaria ciliaris); conditions: foliage application, 320 g/ha
Summary of the method: as §2

persian speedwell [18] = experiment: Test Example 4: herbicidal effect by soil treatment (Table 19, symbol R); assay type: in vivo, Persian speedwell (Veronica persica); conditions: amount of applied herbicide 320 g/ha
Summary of the method: as §1

blackgrass [19] = experiment: Test Example 5: herbicidal effect by foliage application, plastic box (Table 20, symbol J); assay type: in vivo, blackgrass (Alopecurus myosuroides); conditions: foliage application, 320 g/ha
Summary of the method: as §2

false cleavers = experiment: Test Example 5: herbicidal effect by foliage application, plastic box (Table 20, symbol Q); assay type: in vivo, false cleavers (Galium spurium); conditions: foliage application, 320 g/ha
Summary of the method: as §2

Italian ryegrass [20] = experiment: Test Example 4: herbicidal effect by soil treatment (Table 19, symbol K); assay type: in vivo, Italian ryegrass (Lolium multiflorum); conditions: amount of applied herbicide 320 g/ha
Summary of the method: as §1

velvetleaf [21] = experiment: Test Example 5: herbicidal effect by foliage application, plastic box (Table 20, symbol M); assay type: in vivo, velvetleaf (Abutilon theophrasti); conditions: foliage application, 320 g/ha
Summary of the method: as §2

chickweed [22] = experiment: Test Example 5: herbicidal effect by foliage application, plastic box (Table 20, symbol P); assay type: in vivo, common chickweed (Stellaria media); conditions: foliage application, 320 g/ha, evaluated three weeks after application
Summary of the method: as §2

Italian ryegrass [23] = experiment: Test Example 5: herbicidal effect by foliage application, plastic box (Table 20, symbol K); assay type: in vivo, Italian ryegrass (Lolium multiflorum); conditions: foliage application, 320 g/ha
Summary of the method: as §2

redroot pigweed [24] = experiment: Test Example 4: herbicidal effect by soil treatment (Table 19, symbol N); assay type: in vivo, redroot pigweed (Amaranthus retroflexus); conditions: amount of applied herbicide 320 g/ha
Summary of the method: as §1

rice flat sedge = experiment: Test Example 3: herbicidal effect by foliage application, Wagner pot (Table 18, symbol E); assay type: in vivo, rice flat sedge (Cyperus iria); conditions: 320 g/ha
Summary of the method: (§3)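 Plants were sown in alluvial soil held under 0.1–0.5 cm standing water and grown 14 days in a greenhouse at 25–30 °C. An emulsifiable formulation, water-diluted to the set dose, was then sprayed onto the foliage, and effects were scored three weeks later using previously defined criteria.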

barnyard grass [25] = experiment: Test Example 3: herbicidal effect by foliage application, Wagner pot (Table 18, symbol H); assay type: in vivo, barnyard grass (Echinochloa crus-galli); conditions: 320 g/ha
Summary of the method: as §3

Chinese sprangletop = experiment: Test Example 3: herbicidal effect by foliage application, Wagner pot (Table 18, symbol D); assay type: in vivo, chinese sprangletop (Leptochloa chinensis); conditions: 320 g/ha
Summary of the method: as §3

[26] = evaluated three weeks after application

In the case of COc1cc(F)ccc1-c1sc2ccc(-c3ccoc3)cc2c1-c1c(O)c(C)nn(C)c1=O [2-170], the “O: lambsquarters, herbicidal effect rating” value (lambsquarters [1]) is reported as 2 (Herbicidal rate of 20% or more and less than 40%), the “herbicidal effect on R: persian speedwell (criteria 0-5)” value (persian speedwell [2]; [26]) is reported as 1 (Herbicidal rate of 5% or more and less than 20%) and the “herbicidal effect on I: wild oat (criteria 0-5)” value (wild oat [3]; [26]) is reported as 0 (Herbicidal rate of 5% or less (almost no effect)). For the same molecule, the “herbicidal effect on H: barnyard grass (criteria 0-5)” value (barnyard grass [4]; [26]) was 0 (Herbicidal rate of 5% or less (almost no effect)), the “herbicidal effect on O: lambsquarters (criteria 0-5)” value (lambsquarters [5]; [26]) was 3 (Herbicidal rate of 40% or more and less than 70%) and the “F: southern crabgrass, herbicidal effect rating” value (southern crabgrass [6]) was 3 (Herbicidal rate of 40% or more and less than 70%). The “I: wild oat, herbicidal effect rating” value (wild oat [7]) was 0 (Herbicidal rate of 5% or less (almost no effect)), the “P: chickweed, herbicidal effect rating” value (chickweed [8]) was 0 (Herbicidal rate of 5% or less (almost no effect)) and the “herbicidal effect on G: green foxtail (criteria 0-5)” value (green foxtail [9]; [26]) was 0 (Herbicidal rate of 5% or less (almost no effect)). The “J: blackgrass, herbicidal effect rating” value (blackgrass [10]) was 0 (Herbicidal rate of 5% or less (almost no effect)), the “herbicidal effect on L: windgrass (criteria 0-5)” value (windgrass [11]; [26]) was 0 (Herbicidal rate of 5% or less (almost no effect)) and the “herbicidal effect on N: redroot pigweed (criteria 0-5)” value (redroot pigweed [12]) was 3 (Herbicidal rate of 40% or more and less than 70%). The “M: velvetleaf, herbicidal effect rating” value (velvetleaf [13]) was 0 (Herbicidal rate of 5% or less (almost no effect)), the “L: windgrass, herbicidal effect rating” value (windgrass [14]) was 0 (Herbicidal rate of 5% or less (almost no effect)) and the “G: green foxtail, herbicidal effect rating” value (green foxtail [15]) was 0 (Herbicidal rate of 5% or less (almost no effect)). The “H: barnyard grass, herbicidal effect rating” value (barnyard grass [16]) was 0 (Herbicidal rate of 5% or less (almost no effect)), the “herbicidal effect on F: southern crabgrass (criteria 0-5)” value (southern crabgrass [17]; [26]) was 1 (Herbicidal rate of 5% or more and less than 20%) and the “R: persian speedwell, herbicidal effect rating” value (persian speedwell [18]) was 0 (Herbicidal rate of 5% or less (almost no effect)). The “herbicidal effect on J: blackgrass (criteria 0-5)” value (blackgrass [19]; [26]) was 0 (Herbicidal rate of 5% or less (almost no effect)), the “herbicidal effect on Q: false cleavers (criteria 0-5)” value (false cleavers; [26]) was 0 (Herbicidal rate of 5% or less (almost no effect)) and the “K: Italian ryegrass, herbicidal effect rating” value (Italian ryegrass [20]) was 0 (Herbicidal rate of 5% or less (almost no effect)). The “herbicidal effect on M: velvetleaf (criteria 0-5)” value (velvetleaf [21]; [26]) was 3 (Herbicidal rate of 40% or more and less than 70%), the “herbicidal effect on P: chickweed (criteria 0-5)” value (chickweed [22]) was 5 (Herbicidal rate of 90% or more (almost completely withered)) and the “herbicidal effect on K: Italian ryegrass (criteria 0-5)” value (Italian ryegrass [23]; [26]) was 0 (Herbicidal rate of 5% or less (almost no effect)). The “N: redroot pigweed, herbicidal effect rating” value (redroot pigweed [24]) was 0 (Herbicidal rate of 5% or less (almost no effect)).
CCOc1cc2sc(-c3ccccc3OC)c(-c3c(O)c(C)nn(C)c3=O)c2cc1F [5-065] was tested, and the “O: lambsquarters, herbicidal effect grade” value (lambsquarters [1]) was 5 (Herbicidal rate of 90% or more (almost completely withered)), the “herbicidal effect on persian speedwell (R)” value (persian speedwell [2]; three weeks after application) was 5 (Herbicidal rate of 90% or more (almost completely withered)) and the “herbicidal effect on rice flat sedge (E)” value (rice flat sedge) was 4 (Herbicidal rate of 70% or more and less than 90%). For the same molecule, the “herbicidal effect on wild oat (I)” value (wild oat [3]; three weeks after application) was 4 (Herbicidal rate of 70% or more and less than 90%), the “herbicidal effect on barnyard grass (H)” value (barnyard grass [4]; three weeks after application) was 5 (Herbicidal rate of 90% or more (almost completely withered)) and the “herbicidal effect on barnyard grass (H)” value (barnyard grass [25]) was 4 (Herbicidal rate of 70% or more and less than 90%). The “herbicidal effect on lambsquarters (O)” value (lambsquarters [5]; three weeks after application) was 5 (Herbicidal rate of 90% or more (almost completely withered)), the “F: southern crabgrass, herbicidal effect grade” value (southern crabgrass [6]) was 0 (Herbicidal rate of 5% or less (almost no effect)) and the “I: wild oat, herbicidal effect grade” value (wild oat [7]) was 1 (Herbicidal rate of 5% or more and less than 20%). The “herbicidal effect on Chinese sprangletop (D)” value (Chinese sprangletop) was 3 (Herbicidal rate of 40% or more and less than 70%), the “P: chickweed, herbicidal effect grade” value (chickweed [8]) was 5 (Herbicidal rate of 90% or more (almost completely withered)) and the “herbicidal effect on green foxtail (G)” value (green foxtail [9]; three weeks after application) was 5 (Herbicidal rate of 90% or more (almost completely withered)). The “J: blackgrass, herbicidal effect grade” value (blackgrass [10]) was 3 (Herbicidal rate of 40% or more and less than 70%), the “herbicidal effect on windgrass (L)” value (windgrass [11]; three weeks after application) was 5 (Herbicidal rate of 90% or more (almost completely withered)) and the “M: velvetleaf, herbicidal effect grade” value (velvetleaf [13]) was 2 (Herbicidal rate of 20% or more and less than 40%). The “L: windgrass, herbicidal effect grade” value (windgrass [14]) was 3 (Herbicidal rate of 40% or more and less than 70%), the “G: green foxtail, herbicidal effect grade” value (green foxtail [15]) was 4 (Herbicidal rate of 70% or more and less than 90%) and the “H: barnyard grass, herbicidal effect grade” value (barnyard grass [16]) was 4 (Herbicidal rate of 70% or more and less than 90%). For the same molecule, the “herbicidal effect on southern crabgrass (F)” value (southern crabgrass [17]; three weeks after application) was 4 (Herbicidal rate of 70% or more and less than 90%), the “R: persian speedwell, herbicidal effect grade” value (persian speedwell [18]) was 5 (Herbicidal rate of 90% or more (almost completely withered)) and the “herbicidal effect on blackgrass (J)” value (blackgrass [19]; three weeks after application) was 4 (Herbicidal rate of 70% or more and less than 90%). For the same molecule, the “herbicidal effect on false cleavers (Q)” value (false cleavers; three weeks after application) was 5 (Herbicidal rate of 90% or more (almost completely withered)), the “K: Italian ryegrass, herbicidal effect grade” value (Italian ryegrass [20]) was 3 (Herbicidal rate of 40% or more and less than 70%) and the “herbicidal effect on velvetleaf (M)” value (velvetleaf [21]; three weeks after application) was 5 (Herbicidal rate of 90% or more (almost completely withered)). The “herbicidal effect on Italian ryegrass (K)” value (Italian ryegrass [23]; three weeks after application) was 4 (Herbicidal rate of 70% or more and less than 90%) and the “N: redroot pigweed, herbicidal effect grade” value (redroot pigweed [24]) was 5 (Herbicidal rate of 90% or more (almost completely withered)).
